How the values were obtained:
Caco-2 cells = type: cell-based; settings: for change in sialylated glycans / change in fucosylated glycans / fucosylation: fucose 25 mM, butyrate 10 mM; for decrease in sialylated glycans collectively / increase in fucosylated glycans collectively: GlcNAc 25 mM, cell line not given; for change in fucosylated glycans / fucosylation: acetate, lactate; for change in high mannose type glycans / change in the groups of cell surface glycans presented: treated vs untreated; for change in high mannose type glycans / decrease in fucosylated compounds: lactose 70 mg/L; for change in non-decorated complex/hybrid type N-glycans: galactose; for decrease in fucosylated compounds: high galactose; for change in the groups of cell surface glycans presented: glucose 25 mM, glutamate 2 mM, glutathione 2 mM
Experimental: (§1) We examined whether supplementation of free monosacchaides derived from diet changes N-glycosylation outcomes on the intestinal cell-surface at concentrations relevant to physiological conditions. Changes in glycosylation were assessed by globally releasing glycans from membrane proteins extracted from fully differentiated (Caco-2) and partially differentiated (HT-29) intestinal epithelial cells and analyzing the mixture by porous graphitized carbon (PGC)-LC-MS. […] The glycan profile under normal growth conditions was used as a frame of reference with which to compare the glycome at varied environments.
(§2) Human colorectal adenocarcinoma Caco-2 cells derived from a person, were obtained from American Type Culture Collection (ATCC, VA) and grown in Eagle's Minimum Essential Medium (EMEM) supplemented with non-essential amino acids, 2 mM L-glutamine, 10% (v/v) fetal bovine serum (Life Technologies, NY), 1 mM sodium pyruvate, 1.5 g/L sodium bicarbonate, 100 U/mL penicillin, and 100 μg/mL streptomycin. Alternatively, Caco-2 cells were grown in Dulbecco's Modified Eagle's Medium (DMEM) supplemented with 10% (v/v) fetal bovine serum, 100 U/mL penicillin, and 100 μg/mL streptomycin. Human colorectal adenocarcinoma HT-29 cells, derived from a person, were obtained from ATCC and grown in McCoy's 5A medium supplemented with 10% (v/v) fetal bovine serum, 100 U/mL penicillin, and 100 μg/mL streptomycin. Cells were subcultured at 80% confluency and maintained at 37° C. in a humidified incubator with 5% CO=2. All treatments were added to the media after cell differentiation. Caco-2 cells were fully differentiated 14-days post-confluency. HT-29 cells were partially differentiated 4-days post-confluency. After 72 h, cells were collected in biological triplicates by scraping A fixed count of 2×10^6 viable cells was used for each experiment Passage number between experiments was controlled to no higher than P40 and a delta P of no more than 20. High passage cells were scraped after P80. Media was renewed three times a week unless specified. Monolayer integrity and quality of cell borders were evaluated under the microscope routinely during growth and before harvest.
(§3) In brief harvested cells were resuspended in homogenization buffer containing 0.25 M sucrose, 20 mM HEPES-KOH (pH 7.4), and 1:100 protease inhibitor (EMD Millipore, CA). Cell lysis was performed on ice using a probe sonicator (Qsonica, CT) with five alternating and on and off pulses in 5 and 10 s intervals, respectively. Lysates were […] at 2,000×g for 10 min to remove the nuclear fraction and cellular debris. The supernatant was collected and brought to 1 mL with homogenization buffer for ultracentrifugation at 200,000×g for 45 min at 4° C. The pallet was resuspended and repelleted by ultracentrifugation in 0.2 M Na2CO3 (pH 11) followed by water to fragment the endoplasmic reticulum and remove the cytoplasmic fraction, respectively. The resulting membrane faction was isolated and stored at −20° C. until further processing.
(§4) Membrane pellets were resuspended with 100 μL of 100 mM ammonium bicarbonate in 5 mM dithiothreitol and heated for 10 s at 100° C. to thermally denature the proteins. […] After addition of 400 μL of chilled ethanol, samples were placed in −80° C. for 1.5 h and centrifuged for 20 min at 21,130×g to precipitate residual deglycosylated proteins. The supernatant containing the released N-glycans was collected and dried. N-Glycans were purified by solid phase extraction containing a porous graphitized carbon (PGC) matrix. Eluted fractions were dried in vacuo.

THP-1 cells = assay: Lectin array of THP-1 monocyte cell surface glycan composition after monosaccharide supplementation; type: cell-based; settings: 3 days
Experimental: THP-1 cells (monocyte cell line) were incubated with different sugars (i.e. monosaccharides) for 3 days. Lectin arrays were used to detect changes in the cell surface glycan composition. Secreted HDL from the cell supernatant (monocytes secrete their own HDL) was isolated and then analyzed to determine the glycan composition.
• ConA (Concanavalin A): binds internal and nonreducing terminal α-D-mannosyl (αMan) and α-D-glucosyl groups (αGIc) • JAC (Jacalin): binds galactose-containing O-glycoproteins (Galβ3GalNac) • SNA (Sambucus nigra): binds sialic acid attached to terminal galactose in α-2,6 and to a lesser degree, α-2,3 linkage (Neu5Acα6Gal/GalNac) • AAL (Aleuria auanda lectin): binds fucose linked (α-1,6) to N-acetylglucosamine or to fucose linked (α-1,3) to N-acetyllactosamine related structures, exposed core (α-1, 6) and outer arm (α-1, 2 or α-1, 3) linked fucose moieties. Sugar Treatments: • L-fucose: Tested 2 doses: 300 umol/L (physiologic) and 100 mmol/L. (Marquardt T, Blood, December 15; 94(12):3976-85, 1999): Named L-Fuc Low and L-Fuc High • Fructose: Tested 2 doses: 27 mmol/L (physiologic) and 100 mmol/L. (Hui H, Pancreas, August 38(6): 706-12, 2009); Named Fruc Low and Fruc High • N-acetylglucosamine (GlcNAc): Tested 1 dose: 100 mmol/L. (Villiger TK, Controlling the time evolution of mAb N-finked glycosylation, Part I: Microbioreactor experiments, Biotechnol Prog, September; 32(5):1123-1134, 2016) • Galactose: The two doses for the galactose treatment in the glycan array experiments were: 150 mmol/L and 75 mmol/L. (Villiger TK, Controlling the time evolution of mAb N-linked glycosylation, Part II: Model-based predictions, Biotechnol Prog, September; 32(5):135-1148, 2016)

HT-29 cells = assay: Cell surface N-glycan profiling (PGC-LC-MS) of HT-29 after supplementation; type: cell-based, Human; settings: for change in high mannose type glycans: glutamate 2 mM
Experimental: as §1, §2, §3, §4

[1] = Caco-2, 72 h, Ac5-Sia up to 10 mM, glutamine 10 mM
[2] = single dose (GlcNAc 100 mmol/L) or dose not distinguished
[3] = high dose (galactose 150 mmol/L, fructose 100 mmol/L, L-fucose 100 mmol/L)
[4] = low dose (galactose 75 mmol/L, fructose 27 mmol/L, L-fucose 300 umol/L)
[5] = HT-29, 72 h, fructose 50 mM, glutamine 10 mM

Compound: CC(=O)N[C@H]1[C@H]([C@H](OC(C)=O)[C@@H](COC(C)=O)OC(C)=O)OC(OC(C)=O)(C(=O)O)C[C@@H]1OC(C)=O (stereo partly shown) [Ac5-Sia, 2,4,7,8,9-penta-O-acetyl N-acetylneuraminic acid]
- change in monofucosylated glycans (Caco-2 cells; Ac5-Sia up to 10 mM, 72 h): significant increases
- change in sialylated glycans (Caco-2 cells; [1]): remained relatively unchanged

Compound: CC(=O)N[C@H]1C(O)O[C@H](CO)[C@H](O)[C@@H]1O (stereo partly shown) [GalNAc, N-acetylgalactosamine]
- decrease in sialylated glycans collectively (Caco-2 cells; 72 h, GalNAc): 31.9%
- increase in fucosylated glycans collectively (Caco-2 cells; 72 h, GalNAc): 120%
- increase in abundance of non-decorated complex/hybrid type N-glycans (Caco-2 cells; Caco-2, 72 h, fructose 50 mM, GalNAc): 234%
- fold increase of Hex3HexNAc4Fuc1 (Caco-2 cells; GalNAc supplementation, 72 h): 13 fold
- fold increase of Hex3HexNAc5Fuc1 (Caco-2 cells; GalNAc supplementation, 72 h): 7 fold

Compound: CC(=O)N[C@H]1C(O)O[C@H](CO)[C@@H](O)[C@@H]1O (stereo partly shown) [GlcNAc, N-acetylglucosamine]
- AAL binding (fucosylated glycans) (THP-1 cells; [2]): decreased
- ConA binding (glucose or mannose-terminated glycans) (THP-1 cells; [2]): decreased
- JAC binding (terminal galactose containing glycans) (THP-1 cells; [2]): decreased
- SNA binding (terminal sialic acid) (THP-1 cells; [2]): did not change
- decrease in sialylated glycans collectively (Caco-2 cells; 72 h, GalNAc): 53.9%
- increase in fucosylated glycans collectively (Caco-2 cells; 72 h, GalNAc): 61.2%

Compound: CC(=O)O [acetate]
- change in fucosylated glycans / fucosylation (Caco-2 cells; Caco-2, 72 h, glutamine 10 mM): significant increase
- fold decrease of Hex6HexNAc6Fuc1NeuAc3 (Caco-2 cells; Caco-2, SCFA 10 mM, 72 h): 4.7 fold
- fold decrease of Hex7HexNAc7Fuc1NeuAc1 (Caco-2 cells; Caco-2, SCFA 10 mM, 72 h): 2.7 fold
- fold increase of Hex6HexNAc6NeuAc1 (Caco-2 cells; Caco-2, SCFA 10 mM, 72 h): 8.1 fold

Compound: CCCC(=O)O [butyrate]
- fold increase of each of Hex3HexNAc4Fuc1, Hex6HexNAc7Fuc1, Hex7HexNAc7Fuc1 (HT-29 cells; HT-29, butyrate 10 mM, 72 h): more than 13 fold
- increase in fucosylation (HT-29 cells; HT-29, butyrate 10 mM, 72 h): 262%

Compound: C[C@H](O)[C@@H](O)[C@@H](O)[C@H](O)C=O [fucose, L-fucose]
- AAL binding (fucosylated glycans) (THP-1 cells; [3]): decreased
- ConA binding (glucose or mannose-terminated glycans) (THP-1 cells; [3]): decreased
- JAC binding (terminal galactose containing glycans) (THP-1 cells; [3]): decreased
- SNA binding (terminal sialic acid) (THP-1 cells; [3]): increased
- AAL binding (fucosylated glycans) (THP-1 cells; [4]): decreased
- ConA binding (glucose or mannose-terminated glycans) (THP-1 cells; [4]): decreased
- JAC binding (terminal galactose containing glycans) (THP-1 cells; [4]): decreased
- SNA binding (terminal sialic acid) (THP-1 cells; [4]): increased
- change in sialylated glycans (Caco-2 cells; [1]): overall decrease
- change in fucosylated glycans / fucosylation (Caco-2 cells; Caco-2, 72 h, glutamine 10 mM): neither the total levels nor the degree of fucosylation deviated significantly

Compound: O=C[C@H](O)[C@@H](O)[C@@H](O)[C@H](O)CO [galactose]
- AAL binding (fucosylated glycans) (THP-1 cells; [3]): increased
- ConA binding (glucose or mannose-terminated glycans) (THP-1 cells; [3]): increased
- JAC binding (terminal galactose containing glycans) (THP-1 cells; [3]): increased
- SNA binding (terminal sialic acid) (THP-1 cells; [3]): increased
- JAC binding (terminal galactose containing glycans) (THP-1 cells; [4]): decreased
- SNA binding (terminal sialic acid) (THP-1 cells; [4]): increased
- change in high mannose type glycans (Caco-2 cells; Caco-2, 72 h, glutamine 10 mM): significant Increases
- change in non-decorated complex/hybrid type N-glycans (Caco-2 cells; Caco-2, 72 h, glutamine 10 mM): significant Increases
- decrease in fucosylated compounds (Caco-2 cells; Caco-2, 72 h): 20%
- decrease in relative abundances of fucosylated and sialylated glycans (Caco-2 cells; Caco-2, galactose-treated, 72 h): 12-28%
- afucosylated glycans as share of all complex/hybrid glycans (Caco-2 cells; galactose-treated Caco-2 (untreated 15%)): 46%
- asialylated glycans as share of all complex/hybrid glycans (Caco-2 cells; galactose-treated Caco-2 (untreated 23%)): 58%

Compound: N[C@@H](CCC(=O)O)C(=O)O [glutamate]
- change in high mannose type glycans (HT-29 cells; [5]): unperturbed
- decline in fucosylation with respect to the control (HT-29 cells; HT-29, glutamate 2 mM, 72 h): 44.4%
- change in the groups of cell surface glycans presented (Caco-2 cells; Caco-2, 72 h): relatively unaffected

Compound: NC(=O)CC[C@H](N)C(=O)O [glutamine, L-glutamine]
- change in fucosylated glycans (HT-29 cells; [5]): significant increases
- change in high mannose type glycans (HT-29 cells; [5]): significant increases
- change in non-decorated complex/hybrid types of glycans (HT-29 cells; HT-29, glutamine 10 mM, 72 h): significant increases
- change in high mannose type glycans (Caco-2 cells; Caco-2, 72 h, glutamine 10 mM): significant increases
- increase in abundance of high mannose type N-glycans (Caco-2 cells; Caco-2, 72 h, fructose 50 mM, glutamine 10 mM): 507%
- change in sialylated glycans (Caco-2 cells; [1]): remarkable constancy
- change in fucosylated glycans / fucosylation (Caco-2 cells; Caco-2, 72 h, glutamine 10 mM): significant increases
- change in non-decorated complex/hybrid type N-glycans (Caco-2 cells; Caco-2, 72 h, glutamine 10 mM): significant increases
- fold increase of each of Man 5-Man 9 (Caco-2 cells; Caco-2, glutamine 10 mM, 72 h): more than 6 fold

Compound: N[C@@H](CCC(=O)N[C@@H](CS)C(=O)NCC(=O)O)C(=O)O [glutathione]
- change in the HT-29 glycome / major groups of glycans (HT-29 cells; HT-29, 72 h, acetate, lactate 10 mM, glutathione 2 mM): essentially unaltered
- increase in high mannose type glycans (HT-29 cells; HT-29, glutathione 2 mM, 72 h): 37.1%
- change in the groups of cell surface glycans presented (Caco-2 cells; Caco-2, 72 h): essentially unaltered

Compound: OC[C@H]1O[C@@H](O[C@H]2[C@H](O)[C@@H](O)C(O)O[C@@H]2CO)[C@H](O)[C@@H](O)[C@H]1O (stereo partly shown) [lactose]
- change in high mannose type glycans (Caco-2 cells; Caco-2, 72 h, glutamine 10 mM): did not cause dramatic changes
- decrease in fucosylated compounds (Caco-2 cells; Caco-2, 72 h): 20%

Reference: patent US12055553B2, “Method for diagnosing risk for inflammatory disease through glycan profiling” (The Regents of the University of California, priority 2017, dated 2024)
